Reference: ChEMBL document CHEMBL3860079, “Design and synthesis of novel HDAC8 inhibitory 2,5-disubstituted-1,3,4-oxadiazoles containing glycine and alanine hybrids with anti cancer activity” (Bioorg Med Chem, 2016)

Experiments:
Histone deacetylase 3 [1] = molecular target: T1, Histone deacetylase 3 (Homo sapiens, UniProt O15379); assay: Inhibition of HDAC3 in human MDA-MB-231 cells assessed as inhibition of deacetylation activity using Fluor-de-Lys as substrate measured after 15 mins by fluorimetric assay; assay type: cell-based
Histone deacetylase 3 [2] = molecular target: T1, Histone deacetylase 3; assay: Inhibition of HDAC3 in human MDA-MB-231 cells assessed as inhibition of deacetylation activity at 100 nM using Fluor-de-Lys as substrate measured after 15 mins by fluorimetric assay; assay type: cell-based
Histone deacetylase 2 [3] = molecular target: T2, Histone deacetylase 2 (Homo sapiens, UniProt Q92769); assay: Inhibition of HDAC2 in human MDA-MB-231 cells assessed as inhibition of deacetylation activity at 100 nM using Fluor-de-Lys as substrate measured after 15 mins by fluorimetric assay; assay type: cell-based
Histone deacetylase 8 = molecular target: T3, Histone deacetylase 8 (Homo sapiens, UniProt Q9BY41); assay: Inhibition of recombinant human full length GST-tagged HDAC8 expressed in Escherichia coli DH5alpha (DE3) assessed as inhibition of deacetylation activity using Fluor-de-Lys as substrate measured after 15 mins by fluorimetric assay
T3 sequence (Q9BY41 whole entry): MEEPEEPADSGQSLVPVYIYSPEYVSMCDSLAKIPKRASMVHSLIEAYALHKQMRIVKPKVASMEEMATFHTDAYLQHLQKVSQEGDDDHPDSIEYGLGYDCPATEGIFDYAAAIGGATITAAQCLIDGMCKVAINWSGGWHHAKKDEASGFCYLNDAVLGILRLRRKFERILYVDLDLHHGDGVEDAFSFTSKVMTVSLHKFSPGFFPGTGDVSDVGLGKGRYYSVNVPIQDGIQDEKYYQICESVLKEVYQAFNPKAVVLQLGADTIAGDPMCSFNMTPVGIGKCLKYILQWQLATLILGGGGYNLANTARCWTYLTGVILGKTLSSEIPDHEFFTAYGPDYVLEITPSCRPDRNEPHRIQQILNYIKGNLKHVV

[4] = Cytotoxicity against human MDA-MB-231 cells assessed as reduction in cell viability measured after 24 hrs by MTT assay; assay type: functional, cell-based; details: MDA-MB-231, 24 h
Histone deacetylase 1 [5] = molecular target: T4, Histone deacetylase 1 (Homo sapiens, UniProt Q13547); assay: Inhibition of HDAC1 in human MDA-MB-231 cells assessed as inhibition of deacetylation activity at 100 nM using Fluor-de-Lys as substrate measured after 15 mins by fluorimetric assay; assay type: cell-based
Histone deacetylase 2 [6] = molecular target: T2, Histone deacetylase 2; assay: Inhibition of HDAC2 in human MDA-MB-231 cells assessed as inhibition of deacetylation activity using Fluor-de-Lys as substrate measured after 15 mins by fluorimetric assay; assay type: cell-based
Histone deacetylase 1 [7] = molecular target: T4, Histone deacetylase 1; assay: Inhibition of HDAC1 in human MDA-MB-231 cells assessed as inhibition of deacetylation activity using Fluor-de-Lys as substrate measured after 15 mins by fluorimetric assay; assay type: cell-based
[8] = molecular target: T5, Histone deacetylase 8 (Homo sapiens) (UniProt Q9BY41); assay: Inhibition of human HDAC8 immunoprecipitated from MDA-MB-231 cell lysates assessed as inhibition of deacetylation activity at 100 nM using Fluor-de-Lys as substrate measured after 15 mins by fluorimetric assay
T5 sequence (whole entry): T3 sequence (Q9BY41 whole entry)

Homo sapiens [9] = organism: Homo sapiens; assay: Selectivity ratio of IC50 for human full length GST-tagged HDAC8 expressed in Escherichia coli DH5alpha (DE3) to IC50 for HDAC1 in human MDA-MB-231 cells
Homo sapiens [10] = organism: Homo sapiens; assay: Selectivity ratio of IC50 for human full length GST-tagged HDAC8 expressed in Escherichia coli DH5alpha (DE3) to IC50 for HDAC2 in human MDA-MB-231 cells

T2 sequence (Q92769 whole entry): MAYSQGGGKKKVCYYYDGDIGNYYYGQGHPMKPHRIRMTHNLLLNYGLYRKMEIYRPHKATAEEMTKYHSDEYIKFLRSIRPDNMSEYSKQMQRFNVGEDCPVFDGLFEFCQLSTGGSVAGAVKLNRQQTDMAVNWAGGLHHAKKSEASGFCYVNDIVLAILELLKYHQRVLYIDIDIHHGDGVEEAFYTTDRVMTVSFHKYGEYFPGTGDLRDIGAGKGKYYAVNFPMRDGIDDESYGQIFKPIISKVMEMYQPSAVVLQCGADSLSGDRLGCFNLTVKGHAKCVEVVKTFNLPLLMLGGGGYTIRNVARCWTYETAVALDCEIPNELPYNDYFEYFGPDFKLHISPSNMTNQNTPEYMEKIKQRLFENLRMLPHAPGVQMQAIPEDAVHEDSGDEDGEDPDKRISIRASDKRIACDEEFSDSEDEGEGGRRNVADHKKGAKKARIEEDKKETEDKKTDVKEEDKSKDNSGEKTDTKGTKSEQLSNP
T4 sequence (Q13547 whole entry): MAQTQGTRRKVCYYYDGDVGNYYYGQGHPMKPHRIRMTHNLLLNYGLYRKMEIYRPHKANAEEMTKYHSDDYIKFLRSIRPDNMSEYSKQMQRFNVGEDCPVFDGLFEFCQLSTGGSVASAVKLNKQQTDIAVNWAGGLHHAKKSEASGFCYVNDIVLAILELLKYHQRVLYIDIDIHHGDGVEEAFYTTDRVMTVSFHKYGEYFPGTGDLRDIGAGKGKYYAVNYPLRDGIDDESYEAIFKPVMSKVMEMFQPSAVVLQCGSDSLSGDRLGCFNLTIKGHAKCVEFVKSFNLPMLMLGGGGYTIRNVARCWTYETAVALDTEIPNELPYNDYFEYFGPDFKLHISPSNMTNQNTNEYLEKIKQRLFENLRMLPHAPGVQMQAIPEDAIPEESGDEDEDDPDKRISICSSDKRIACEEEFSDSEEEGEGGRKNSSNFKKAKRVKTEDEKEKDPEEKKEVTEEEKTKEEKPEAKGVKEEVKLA
T1 sequence (O15379 whole entry): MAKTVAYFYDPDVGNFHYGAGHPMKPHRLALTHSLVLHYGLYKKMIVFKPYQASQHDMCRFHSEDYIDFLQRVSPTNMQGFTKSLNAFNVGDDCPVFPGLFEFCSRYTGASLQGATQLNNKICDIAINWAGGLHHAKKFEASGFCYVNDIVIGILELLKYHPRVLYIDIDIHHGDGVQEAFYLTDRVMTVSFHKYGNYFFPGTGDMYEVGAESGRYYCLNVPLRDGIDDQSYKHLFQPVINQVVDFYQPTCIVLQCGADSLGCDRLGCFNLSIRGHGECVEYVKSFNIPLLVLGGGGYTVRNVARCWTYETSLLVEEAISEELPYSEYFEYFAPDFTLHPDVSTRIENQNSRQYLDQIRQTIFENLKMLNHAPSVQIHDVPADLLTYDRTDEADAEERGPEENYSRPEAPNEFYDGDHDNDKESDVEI

| Structure (SMILES) | IC50 (Histone deacetylase 8) | IC50 [4] | other results |
| --- | --- | --- | --- |
| C[C@@H](N)C(=O)NCc1nnc(-c2ccccc2)o1 | 98 to 100 nM | 230 nM | IC50 (Histone deacetylase 3 [1]): > 10000 nM; inhibition (Histone deacetylase 3 [2]): 0%; inhibition (Histone deacetylase 2 [3]): 19%; inhibition (Histone deacetylase 1 [5]): 30%; IC50 (Histone deacetylase 2 [6]): 135 nM; IC50 (Histone deacetylase 1 [7]): 260 nM; inhibition [8]: 53%; Ratio IC50 (Homo sapiens [9]): 0.38; Ratio IC50 (Homo sapiens [10]): 0.74 |
| Cc1ccc(-c2nnc(CNC(=O)[C@@H](C)N)o2)cc1 | 121 nM | 254 nM | – |
| C[C@@H](N)C(=O)NCc1nnc(-c2ccc([N+](=O)[O-])cc2)o1 | 127 nM | 261 nM | – |
| Cc1ccc(-c2nnc(CNC(=O)CN)o2)cc1 | 139 nM | 260 nM | – |
| COc1ccc(-c2nnc(CNC(=O)[C@@H](C)N)o2)cc1 | 153 nM | 295 nM | – |
| NCC(=O)NCc1nnc(-c2ccccc2)o1 | 155 nM | 283 nM | – |

Second part, led by results:

| IC50 (Histone deacetylase 8) | Structure (SMILES) | IC50 [4] | other results |
| --- | --- | --- | --- |
| 142 nM | COc1ccc(-c2nnc(CNC(=O)CN)o2)cc1 | 276 nM | – |
| 134 nM | NCC(=O)NCc1nnc(-c2ccc([N+](=O)[O-])cc2)o1 | 276 nM | – |
| 135 nM | NCC(=O)NCc1nnc(-c2ccc(F)cc2)o1 | 254 nM | – |
| 116 nM | C[C@@H](N)C(=O)NCc1nnc(-c2ccc(F)cc2)o1 | 247 nM | – |
